Here are results for 1 compound from patent publication US20180256623A1, “COMPOSITIONS AND METHOD FOR REGULATING ADIPOSE TISSUE LIPOLYSIS, INSULIN-RESISTANCE, AND HYPERGLYCEMIA” (University of Virginia Patent Foundation, priority 2015, published 2018).

In assay [1] the test system is white adipose tissue organ cultures. As to conditions: cited from earlier work.
Assay [2] concerns the target T1, lipoprotein lipase (Homo sapiens, UniProt P06858).
T1 sequence (P06858 28-475): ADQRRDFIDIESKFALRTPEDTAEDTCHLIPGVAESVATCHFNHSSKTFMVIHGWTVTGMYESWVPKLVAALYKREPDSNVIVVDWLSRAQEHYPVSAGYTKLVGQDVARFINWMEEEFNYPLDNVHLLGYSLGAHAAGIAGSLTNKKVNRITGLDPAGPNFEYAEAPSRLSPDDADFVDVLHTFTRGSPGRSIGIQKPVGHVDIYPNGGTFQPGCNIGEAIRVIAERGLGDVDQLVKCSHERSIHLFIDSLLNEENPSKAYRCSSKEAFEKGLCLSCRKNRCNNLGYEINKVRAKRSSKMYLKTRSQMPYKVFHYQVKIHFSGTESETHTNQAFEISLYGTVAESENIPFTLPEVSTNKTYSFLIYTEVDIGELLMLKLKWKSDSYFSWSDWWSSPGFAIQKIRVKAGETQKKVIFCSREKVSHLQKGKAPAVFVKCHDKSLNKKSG
Conditions: cited from earlier work.

Assay [3] concerns mice. In words: Rodent hemorrhage and trauma (surgery) model. The format is in vivo. The text has this: The acute changes in blood glucose that occur in a T1DM model were invesitaged. Streptozotocin (STZ)-treated mice were subjected to a hemorrhage protocol to mimic surgical induction of the neuroendocrine stress response in humans (FIG. 1). Adipose tissue lipolysis was controlled via the addition of the small molecule inhibitor Atglistatin. The extent of glycemic excursions and ketogenesis was followed.
Separate rodent models of diabetes were employed to investigate the unique co-morbidities associated with T1DM. For the T1DM model, C57BL/6J mice were subjected to low dose injection of streptozotocin (50 mg/kg) at 6-8 weeks of age (see the website for the Diabetic Complications Consortium).
The protocol for modeling surgery-induced stress has been adapted from several sources and is available to an art worker. Although few human patients undergo extensive hemorrhage during elective surgeries, this rodent protocol is a consistent and reproducible experimental model for surgical stress in humans. Briefly, on the day of the surgery 10-12 week old male mice were fasted for six hours prior to surgery and pre-treated with or without lmg/kg body weight of Atglistatin at four hours prior to surgery to prevent adipose tissue lipolysis. Mice were then anesthetized by continuous inhalation of isoflurane and subjected to a 2-cm ventral midline laparotomy. The abdomen will then be sutured, a catheter was placed in the right femoral artery and mice were hemorrhaged from the left femoral artery to a mean arterial pressure (MAP) of 35-40 mm Hg (T0′). Blood glucose and ketone levels were monitored during the surgery. The mice were followed until 30′ post-hemorrhage and were maintained continuously under anesthesia. At the termination of the experiment, blood was collected to measure serum catecholamines, insulin, cytokines, ketones and glycerol levels, among other possible metabolic parameters.
Rodent hemorrhage and trauma model—To activate the adaptive stress response and emulate the acute hyperglycemia and insulin resistance that develops after surgery, trauma and hemorrhage mice as previously described will be used. Briefly, 10-12 week old male mice are fasted for 4-6 hours prior to surgery and 4 hours before surgery, Atglistatin (1 mg/kg) or vehicle will be injected intraperitoneally. Mice are anesthetized by continuous inhalation of 1.5% isoflurane and 98.5% 02 throughout all procedures. After the mice are shaved, surgery will begin with a 2-cm ventral midline laparotomy. The abdomen is then sutured and the wounds bathed with 1% lidocaine to reduce pain. A catheter is placed in the right femoral artery for monitoring mean arterial pressure (MAP). To replicate the blood loss during a surgery, mice are hemorrhaged from the left femoral artery to an MAP of 35-40 mmHg over a 10-minute period. Once the MAP reaches 35-40 mmHg, the […]. […] Control mice are subjected to trauma alone. Mice are subjected to anesthesia, laparotomy, and catheterization. […] Blood glucose levels are monitored during the surgery.

Assay [4] deals with T2, pancreatic lipase (Homo sapiens, UniProt P16233).
T2 sequence (P16233 17-465): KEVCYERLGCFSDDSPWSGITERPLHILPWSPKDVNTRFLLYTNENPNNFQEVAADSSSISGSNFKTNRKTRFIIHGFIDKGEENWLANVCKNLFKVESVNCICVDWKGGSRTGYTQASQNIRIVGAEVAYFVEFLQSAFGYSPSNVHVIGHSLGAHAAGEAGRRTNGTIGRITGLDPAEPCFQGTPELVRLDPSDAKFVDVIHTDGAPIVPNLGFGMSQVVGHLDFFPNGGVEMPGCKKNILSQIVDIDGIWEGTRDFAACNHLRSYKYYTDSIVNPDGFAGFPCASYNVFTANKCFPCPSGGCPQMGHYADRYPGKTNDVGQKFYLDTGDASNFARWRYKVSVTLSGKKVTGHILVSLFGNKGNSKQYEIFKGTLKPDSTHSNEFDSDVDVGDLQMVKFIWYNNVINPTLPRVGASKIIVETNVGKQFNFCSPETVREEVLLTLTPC
Conditions: cited from earlier work.

On to `CN(C)C(=O)Nc1cccc(-c2ccc(N(C)C)cc2)c1` [Atglistatin, N′-[4′-(dimethylamino) [1,1′-biphenyl]-3-yl]-N,N-dimethyl-urea], for which the “lipolysis by ATGL (fatty acid mobilization)” value in assay [1] is recorded as “blocks lipolysis”. Besides, the “inhibition of lipoprotein lipase” value in assay [2] was “does not inhibit”. In addition, the “adipose tissue lipolysis as assessed by serum glycerol levels” value in assay [3] (control mice, pre-treated with lmg/kg body weight four hours prior to surgery, FIG. 2B) is reported as “attenuating adipose tissue lipolysis”. In addition, the “circulating glycerol (lipolysis)” value in assay [3] (mice, Atglistatin 1 mg/kg intraperitoneally 4 hours before surgery) is “reduction in circulating glycerol”. Besides, the hemorrhage-induced hyperglycemia entry in assay [3] (mice, Atglistatin 1 mg/kg intraperitoneally 4 hours before surgery, FIG. 3A) is “effective in preventing hemorrhage-induced hyperglycemia”. In assay [3] (mice, Atglistatin 1 mg/kg intraperitoneally 4 hours before surgery, FIG. 3B), the “insulin resistance in adipose tissue and skeletal muscle” value is “attenuation of insulin resistance in adipose tissue and skeletal muscle”. In addition, the stress-induced lipolysis entry in assay [3] (pharmacological inhibition of ATGL) was “largely blocks stress-induced lipolysis”. Moreover, the “inhibition of pancreatic lipase” value in assay [4] was “does not inhibit”.
